Data on five compounds can be found in patent US9827208B2, “Antioxidant dietary supplement compositions and methods for maintaining healthy skin” (priority 2004, dated 2017).

Series [1] in a line: Digestive tolerance of ingested high quantities of antioxidants. The format is in vivo. Particulars: oral.
The nature of series [2]: Stability of gallic acid as additive in juice and food products. Particulars: acidity about pH 5 or lower. Type of series: physicochemical.
Series [3] has as its system skin conditions arising from acne and rosacea. Description: Effect of oral antioxidant/lycopene compositions on skin conditions (acne, rosacea symptoms). The format is in vivo, human. The conditions noted are these: oral administration, methods of treatment of the invention.
The conditions of series [4]: cited from earlier work.

As to `O=C(O)c1cc(O)c(O)c(O)c1` [gallic acid, trihydroxy benzoic acid], in series [1], the “digestive system problems on ingestion of relatively high quantities” value is on record as “can result in digestive system problems”. Besides, the “stability of gallic acid in un-oxidized form in juice/food product” value in series [2] is “stable”.
In the case of `O=C1O[C@H]([C@@H](O)CO)C(O)=C1O` [ascorbic acid], the “digestive system problems on ingestion of relatively high quantities” value in series [1] is listed as “can result in digestive system problems”.
With `CCCOC(=O)c1cc(O)c(O)c(O)c1` [propyl gallate], in series [3], the “effectiveness in improving skin conditions / suppressing skin ailments” value is “not effective”.
Consider `CC(C)=CCC/C(C)=C/C=C/C(C)=C/C=C/C(C)=C/C=C/C=C(C)/C=C/C=C(C)/C=C/C=C(\C)CCC=C(C)C` [lycopene], for which the “effectiveness in improving skin conditions / suppressing skin ailments” value in series [3] is reported as “less effective”. Besides, the “bioavailability of lycopene on heating and processing tomatoes into tomato paste” value in series [4] (heating and processing into tomato paste) is reported as “increases bioavailability”. The “adsorption by humans of lycopene from dietary sources” value in series [4] (humans, dietary sources) is reported as ≥ 2,5%. Besides, in series [4] (presence of oil), the “bioavailability of lycopene in presence of oil” value was “increases bioavailability”.
With `COC(=O)c1cc(O)c(O)c(O)c1` [methyl gallate], the “effectiveness in improving skin conditions / suppressing skin ailments” value in series [3] is listed as “not effective”.
